Experimental data as given in ChEMBL document CHEMBL1201862, “PubChem BioAssay data set” (2004).
Activity calls are given as the source filed them.

What was measured:
[1] = tested on: Streptococcus sp. 'group A'; test: growth inhibition of control SK(-) GAS strain, dose response, counter-screen for streptokinase expression inhibitor project, luminescence, kanamycin, BacTiterGlo, confirmation (AID 1900); assay type: functional, organism-based
Streptokinase A = target: T1, Streptokinase A (Streptococcus pyogenes serotype M1, UniProt P10520); test: S. pyogenes streptokinase expression inhibitors, potency, dose response, plasminogen activation absorbance, OD405 (AID 1914); assay type: functional, Streptococcus pyogenes M1 GAS;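 further: secreted streptokinase activity via plasminogen activation per viability signal from cell pellet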
T1 sequence (P10520 whole entry): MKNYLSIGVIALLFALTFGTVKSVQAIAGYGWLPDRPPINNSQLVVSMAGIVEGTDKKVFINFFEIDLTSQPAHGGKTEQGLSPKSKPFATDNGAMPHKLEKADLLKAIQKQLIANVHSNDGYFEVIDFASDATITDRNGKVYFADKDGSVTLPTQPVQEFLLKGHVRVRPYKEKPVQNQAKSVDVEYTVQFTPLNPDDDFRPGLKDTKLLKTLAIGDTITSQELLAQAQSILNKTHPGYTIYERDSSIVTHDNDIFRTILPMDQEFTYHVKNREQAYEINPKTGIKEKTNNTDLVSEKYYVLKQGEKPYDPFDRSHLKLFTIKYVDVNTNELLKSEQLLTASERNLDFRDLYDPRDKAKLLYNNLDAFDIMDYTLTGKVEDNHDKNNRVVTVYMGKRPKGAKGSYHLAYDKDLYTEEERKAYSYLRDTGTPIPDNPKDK

[2] = inhibitors of Bluetongue virus cytopathic effect, confirmation, arbovirus, BSR cells (AID 1250); assay type: functional;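 further: protection from viral cytopathic effect measured as cell viability by ATP luminescence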
[3] = Luminescence Cell-Based Dose Retest to Confirm Inhibitors of Cancer Stem Cells. [Related pubchem assays (depositor defined):AID2717, AID2721]; assay type: functional; details: Homo sapiens
Streptococcus = test: Group A Streptococcus viability loss, dose response, counter-screen for streptokinase expression inhibitor project, luminescence, BacTiterGlo (AID 1915); assay type: functional, organism-based;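 further: potency for reduction of bacterial viability or growth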
Aspartyl aminopeptidase = Aspartyl aminopeptidase (Plasmodium falciparum 3D7, UniProt Q8I2J3)
[4] = target: T2, Rac GTPase-activating protein 1 (Homo sapiens, UniProt Q9H0H5); test: MgcRacGAP GTPase-activating activity inhibitors, confirmation, biochemical, ADP Hunter fluorescence, primary and confirmatory (AID 624330); assay type: functional
T2 sequence (Q9H0H5 whole entry): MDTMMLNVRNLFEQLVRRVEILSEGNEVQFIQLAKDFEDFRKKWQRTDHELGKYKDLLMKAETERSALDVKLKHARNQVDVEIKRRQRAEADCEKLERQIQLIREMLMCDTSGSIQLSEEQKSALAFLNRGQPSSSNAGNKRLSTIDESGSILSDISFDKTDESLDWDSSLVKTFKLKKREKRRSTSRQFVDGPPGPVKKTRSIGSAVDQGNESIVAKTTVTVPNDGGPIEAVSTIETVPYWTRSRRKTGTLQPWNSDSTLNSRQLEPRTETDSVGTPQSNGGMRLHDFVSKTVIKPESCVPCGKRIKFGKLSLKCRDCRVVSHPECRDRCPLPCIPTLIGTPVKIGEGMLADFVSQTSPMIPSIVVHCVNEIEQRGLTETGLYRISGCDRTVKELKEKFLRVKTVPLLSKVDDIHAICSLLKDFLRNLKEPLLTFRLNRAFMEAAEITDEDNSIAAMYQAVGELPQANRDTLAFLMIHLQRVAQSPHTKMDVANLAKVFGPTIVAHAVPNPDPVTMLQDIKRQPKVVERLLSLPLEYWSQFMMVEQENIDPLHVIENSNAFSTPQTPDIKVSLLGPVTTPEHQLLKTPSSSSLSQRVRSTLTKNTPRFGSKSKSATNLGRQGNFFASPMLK

Procathepsin L = Procathepsin L (Homo sapiens, UniProt P07711)
[5] = target: Dual specificity tyrosine-phosphorylation-regulated kinase 1A (Rattus norvegicus, UniProt Q63470); assay type: biochemical, Homo sapiens
[6] = target: T3, Eukaryotic translation initiation factor 2-alpha kinase 3 (Homo sapiens, UniProt Q9NZJ5); test: Dose response cell-based high-throughput screening assay to measure PERK inhibition. [Related pubchem assays: 1416 ]; assay type: functional
[7] = target: T3, Eukaryotic translation initiation factor 2-alpha kinase 3; test: Counterscreen assay for PERK inhibitors: Dose response cell-based high throughput screening assay to measure inhibition of PERK at 6 hours. [Related pubchem assays: 1522, 1416 ]; assay type: functional
HT-1080 = test: cytotoxicity in HT1080 fibrosarcoma cells, cell-based, fluorescence readout (AID 620); assay type: functional; details: Homo sapiens
[8] = target: Luciferin 4-monooxygenase (Photinus pyralis, UniProt P08659); test: Counter Screen for Luciferase-based Assay Positives. [Related pubchem assays: 620, 618, 411 ]
[9] = target: Lysosomal acid glucosylceramidase (Homo sapiens, UniProt P04062); test: Dose response cell-based high throughput screening assay to identify enhancers of beta-glucosidase activity. [Related pubchem assays: 784 ]; assay type: functional
Wee1-like protein kinase = Wee1-like protein kinase (Homo sapiens, UniProt P30291); test: Dose Response Cell-based Assay for Inhibitors of Wee1 Degradation. [Related pubchem assays: 1410, 1321 ]; assay type: functional
[10] = target: G2/mitotic-specific cyclin-B1 (Homo sapiens, UniProt P14635); test: Counterscreen assay for inhibitors of Wee1 degradation: dose response cell-based assay to identify inhibitors of cyclin B degradation. [Related pubchem assays: 1410, 1321 ]; assay type: functional
Ion channel NompC = Ion channel NompC (Danio rerio, UniProt Q7T1G6); test: Fluorescence counterscreen assay for TRPML3 agonists: dose response cell-based high-throughput screening assay to identify agonists of the transient receptor potential channel N1 (TRPN1). [Related pubchem assays: 1526, 1424, 1448 ]; assay type: functional
Mucolipin-3 = Mucolipin-3 (Homo sapiens, UniProt Q8TDD5); test: Dose response cell-based high-throughput screening assay for agonists of the transient receptor potential channel ML3 (TRPML3). [Related pubchem assays: 1526, 1424, 1448 ]; assay type: functional
[11] = target: Mothers against decapentaplegic homolog 3 (Homo sapiens, UniProt P84022); test: Smad3 binding inhibitors, lysate ELISA, dose response, cell lysate, secondary confirmation, chemiluminescent ELISA, HEK293 lysate (AID 1058); assay type: functional
Cytochrome P450 2D6 = Cytochrome P450 2D6 (Homo sapiens, UniProt P10635); test: qHTS Assay for Inhibitors and Substrates of Cytochrome P450 2D6. [Related pubchem assays: 410 ]; assay type: ADME; details: read-out: Potency
Large T antigen = Large T antigen (Simian virus 40, UniProt P03070); assay type: functional, Betapolyomavirus macacae;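 further: Confirmatory-stage PubChem screen for compounds that inhibit SV40 T antigen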
[12] = target: C-C chemokine receptor type 6 (Homo sapiens, UniProt P51684); test: CCR6 receptor antagonists, dose response, cell-based, luminescent beta-arrestin readout (AID 504728); assay type: functional
NS3 = NS3 (Hepatitis C virus, UniProt A3EZJ3); test: PubChem AID 2173; parameters: species or system Hepacivirus hominis
Beta-galactosidase = Beta-galactosidase (Escherichia coli, UniProt Q8VNN2); test: beta-galactosidase enzyme inhibitors and activators, dose response, artefact control for CCR6 antagonist project, biochemical, E. coli enzyme, set 3 (AID 504712); assay type: functional
[13] = target: Heat shock protein HSP 90-alpha (Homo sapiens, UniProt P07900); assay type: functional, organism-based
[14] = target: T4, High affinity choline transporter 1 (Homo sapiens, UniProt Q9GZV3); test: CHT inhibitors, dose response, cell-based, 5-point CRC, membrane potential dye (AID 504840); assay type: functional
T4 sequence (Q9GZV3 whole entry): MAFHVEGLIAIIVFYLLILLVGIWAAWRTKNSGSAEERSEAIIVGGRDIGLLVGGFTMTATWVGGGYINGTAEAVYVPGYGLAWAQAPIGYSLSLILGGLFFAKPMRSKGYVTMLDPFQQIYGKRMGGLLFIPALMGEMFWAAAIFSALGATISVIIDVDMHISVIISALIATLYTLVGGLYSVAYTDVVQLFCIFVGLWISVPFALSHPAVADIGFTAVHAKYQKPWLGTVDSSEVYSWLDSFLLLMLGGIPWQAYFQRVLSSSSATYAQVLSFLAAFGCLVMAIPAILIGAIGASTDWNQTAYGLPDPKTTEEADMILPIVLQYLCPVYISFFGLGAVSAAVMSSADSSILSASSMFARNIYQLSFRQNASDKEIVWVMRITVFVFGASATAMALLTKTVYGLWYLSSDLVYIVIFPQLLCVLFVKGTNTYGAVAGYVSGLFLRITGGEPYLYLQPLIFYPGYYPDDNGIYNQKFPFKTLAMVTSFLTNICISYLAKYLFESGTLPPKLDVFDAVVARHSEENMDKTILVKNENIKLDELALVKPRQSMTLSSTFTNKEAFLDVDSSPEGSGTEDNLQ

[15] = inhibitors of SNCA 5'UTR-driven reporter translation, confirmation, H4 neuroglioma cells, luminescence (AID 1988); assay type: functional, cell-based
cells = assay type: functional, cell-based
[16] = Luminescence Cell-Based Dose Response HTS to Identify Inhibitors of 5'UTR Stem-Loop Driven Prion Protein mRNA Translation in H4 Neuroglioblastoma Cells. [Related pubchem assays: 1827 (Project Summary), 1813 (Primary HTS)]; assay type: functional
[17] = inhibitors of SNCA 5'UTR-driven translation, confirmation, luminescence, H4 neuroglioblastoma cells, dose confirmation (AID 2454); assay type: functional, cell-based;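 further: H4 neuroglioblastoma cells carrying an alpha-synuclein 5'UTR luciferase reporter; potency for inhibition of the luciferase signal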
[18] = inhibitors of firefly luciferase expression or activity, dose response, H4 neuroglioma cells, luminescence (AID 1990); assay type: functional, cell-based
[19] = luciferase reporter signal reduction – luminescence, H4-C neuroglioblastoma cells, dose response (AID 2458); assay type: functional, cell-based;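 further: H4 neuroglioblastoma cells stably carrying a luciferase reporter gene fusion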

T3 sequence (Q9NZJ5 whole entry): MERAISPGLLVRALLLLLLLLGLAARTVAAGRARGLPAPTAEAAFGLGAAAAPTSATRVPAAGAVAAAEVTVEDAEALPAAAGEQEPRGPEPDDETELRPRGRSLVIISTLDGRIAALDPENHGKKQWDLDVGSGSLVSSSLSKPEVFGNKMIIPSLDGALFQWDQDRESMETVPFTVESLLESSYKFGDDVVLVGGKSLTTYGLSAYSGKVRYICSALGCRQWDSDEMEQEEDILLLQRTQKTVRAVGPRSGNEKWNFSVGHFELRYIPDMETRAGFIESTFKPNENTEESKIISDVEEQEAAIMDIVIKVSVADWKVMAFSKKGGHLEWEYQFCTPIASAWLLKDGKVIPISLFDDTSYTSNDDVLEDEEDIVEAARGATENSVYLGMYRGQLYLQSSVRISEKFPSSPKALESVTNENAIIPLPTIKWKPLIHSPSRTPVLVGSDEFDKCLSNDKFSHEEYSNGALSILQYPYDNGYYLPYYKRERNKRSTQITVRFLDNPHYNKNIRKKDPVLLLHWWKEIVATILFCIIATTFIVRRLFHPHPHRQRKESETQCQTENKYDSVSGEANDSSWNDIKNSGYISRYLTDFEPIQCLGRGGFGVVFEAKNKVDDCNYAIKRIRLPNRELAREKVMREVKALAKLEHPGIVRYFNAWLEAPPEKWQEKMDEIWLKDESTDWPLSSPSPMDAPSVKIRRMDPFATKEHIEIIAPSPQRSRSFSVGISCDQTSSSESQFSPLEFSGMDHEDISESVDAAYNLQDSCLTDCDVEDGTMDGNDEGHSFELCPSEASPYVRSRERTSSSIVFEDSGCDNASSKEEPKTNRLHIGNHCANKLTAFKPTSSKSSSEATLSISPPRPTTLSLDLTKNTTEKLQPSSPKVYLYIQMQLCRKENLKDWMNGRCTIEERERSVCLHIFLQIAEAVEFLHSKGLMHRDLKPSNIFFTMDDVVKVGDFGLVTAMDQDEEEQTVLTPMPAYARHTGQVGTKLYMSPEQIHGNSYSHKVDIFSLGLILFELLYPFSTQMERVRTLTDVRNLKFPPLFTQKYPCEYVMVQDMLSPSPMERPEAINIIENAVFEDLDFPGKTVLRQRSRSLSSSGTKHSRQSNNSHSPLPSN
Chain of Mothers against decapentaplegic homolog 3 (P84022 whole entry): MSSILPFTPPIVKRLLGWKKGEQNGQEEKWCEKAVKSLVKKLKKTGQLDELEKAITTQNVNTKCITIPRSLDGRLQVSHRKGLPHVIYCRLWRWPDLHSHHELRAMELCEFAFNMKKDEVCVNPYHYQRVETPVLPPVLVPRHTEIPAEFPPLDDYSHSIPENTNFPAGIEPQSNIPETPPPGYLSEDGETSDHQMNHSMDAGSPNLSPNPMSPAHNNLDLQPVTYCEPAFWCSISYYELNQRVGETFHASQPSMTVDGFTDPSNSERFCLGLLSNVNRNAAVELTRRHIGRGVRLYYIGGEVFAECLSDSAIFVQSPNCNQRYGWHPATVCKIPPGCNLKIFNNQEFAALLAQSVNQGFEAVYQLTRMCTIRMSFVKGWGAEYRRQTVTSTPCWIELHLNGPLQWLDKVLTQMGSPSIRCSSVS
Chain of Aspartyl aminopeptidase (Q8I2J3 whole entry): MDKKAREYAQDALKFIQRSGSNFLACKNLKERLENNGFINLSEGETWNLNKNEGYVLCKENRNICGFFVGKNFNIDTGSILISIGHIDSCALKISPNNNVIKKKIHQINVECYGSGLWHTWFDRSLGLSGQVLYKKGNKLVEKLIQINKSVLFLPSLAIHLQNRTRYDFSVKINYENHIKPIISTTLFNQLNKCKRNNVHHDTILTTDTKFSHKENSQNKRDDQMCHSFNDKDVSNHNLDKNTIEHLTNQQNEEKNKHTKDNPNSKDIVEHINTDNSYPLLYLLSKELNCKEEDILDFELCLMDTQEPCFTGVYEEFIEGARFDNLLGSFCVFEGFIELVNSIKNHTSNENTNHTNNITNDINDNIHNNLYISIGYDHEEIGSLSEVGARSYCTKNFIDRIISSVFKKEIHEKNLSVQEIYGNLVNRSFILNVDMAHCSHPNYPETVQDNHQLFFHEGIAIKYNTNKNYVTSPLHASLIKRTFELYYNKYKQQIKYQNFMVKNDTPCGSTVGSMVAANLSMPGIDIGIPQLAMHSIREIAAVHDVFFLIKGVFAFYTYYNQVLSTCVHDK
Chain of Luciferin 4-monooxygenase (P08659 whole entry): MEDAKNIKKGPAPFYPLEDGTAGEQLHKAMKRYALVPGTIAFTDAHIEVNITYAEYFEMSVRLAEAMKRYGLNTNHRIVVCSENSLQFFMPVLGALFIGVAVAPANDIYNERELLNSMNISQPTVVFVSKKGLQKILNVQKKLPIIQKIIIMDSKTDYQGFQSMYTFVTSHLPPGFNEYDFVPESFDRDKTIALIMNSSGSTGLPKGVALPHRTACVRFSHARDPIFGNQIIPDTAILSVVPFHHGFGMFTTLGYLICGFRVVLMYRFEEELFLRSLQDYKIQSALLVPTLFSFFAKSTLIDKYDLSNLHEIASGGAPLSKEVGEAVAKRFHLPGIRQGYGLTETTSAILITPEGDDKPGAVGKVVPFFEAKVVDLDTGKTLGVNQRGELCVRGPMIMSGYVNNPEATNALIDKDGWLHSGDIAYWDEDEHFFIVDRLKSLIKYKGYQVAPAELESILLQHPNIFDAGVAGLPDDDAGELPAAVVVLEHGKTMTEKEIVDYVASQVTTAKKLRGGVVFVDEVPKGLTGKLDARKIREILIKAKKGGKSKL
Chain of Cytochrome P450 2D6 (P10635 whole entry): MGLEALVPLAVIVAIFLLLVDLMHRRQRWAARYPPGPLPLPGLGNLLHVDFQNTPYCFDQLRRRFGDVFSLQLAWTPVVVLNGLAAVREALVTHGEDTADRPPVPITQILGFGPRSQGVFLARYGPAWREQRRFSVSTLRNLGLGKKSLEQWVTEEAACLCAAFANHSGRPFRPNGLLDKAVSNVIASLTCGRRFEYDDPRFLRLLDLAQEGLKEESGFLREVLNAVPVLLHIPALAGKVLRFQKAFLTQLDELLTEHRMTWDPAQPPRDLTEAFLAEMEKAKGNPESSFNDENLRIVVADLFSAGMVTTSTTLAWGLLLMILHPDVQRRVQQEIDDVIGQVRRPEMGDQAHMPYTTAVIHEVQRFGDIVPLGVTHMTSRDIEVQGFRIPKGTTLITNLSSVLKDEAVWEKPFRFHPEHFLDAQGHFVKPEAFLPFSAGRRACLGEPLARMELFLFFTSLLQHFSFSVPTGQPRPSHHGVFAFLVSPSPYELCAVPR
Chain of Beta-galactosidase (Q8VNN2 whole entry): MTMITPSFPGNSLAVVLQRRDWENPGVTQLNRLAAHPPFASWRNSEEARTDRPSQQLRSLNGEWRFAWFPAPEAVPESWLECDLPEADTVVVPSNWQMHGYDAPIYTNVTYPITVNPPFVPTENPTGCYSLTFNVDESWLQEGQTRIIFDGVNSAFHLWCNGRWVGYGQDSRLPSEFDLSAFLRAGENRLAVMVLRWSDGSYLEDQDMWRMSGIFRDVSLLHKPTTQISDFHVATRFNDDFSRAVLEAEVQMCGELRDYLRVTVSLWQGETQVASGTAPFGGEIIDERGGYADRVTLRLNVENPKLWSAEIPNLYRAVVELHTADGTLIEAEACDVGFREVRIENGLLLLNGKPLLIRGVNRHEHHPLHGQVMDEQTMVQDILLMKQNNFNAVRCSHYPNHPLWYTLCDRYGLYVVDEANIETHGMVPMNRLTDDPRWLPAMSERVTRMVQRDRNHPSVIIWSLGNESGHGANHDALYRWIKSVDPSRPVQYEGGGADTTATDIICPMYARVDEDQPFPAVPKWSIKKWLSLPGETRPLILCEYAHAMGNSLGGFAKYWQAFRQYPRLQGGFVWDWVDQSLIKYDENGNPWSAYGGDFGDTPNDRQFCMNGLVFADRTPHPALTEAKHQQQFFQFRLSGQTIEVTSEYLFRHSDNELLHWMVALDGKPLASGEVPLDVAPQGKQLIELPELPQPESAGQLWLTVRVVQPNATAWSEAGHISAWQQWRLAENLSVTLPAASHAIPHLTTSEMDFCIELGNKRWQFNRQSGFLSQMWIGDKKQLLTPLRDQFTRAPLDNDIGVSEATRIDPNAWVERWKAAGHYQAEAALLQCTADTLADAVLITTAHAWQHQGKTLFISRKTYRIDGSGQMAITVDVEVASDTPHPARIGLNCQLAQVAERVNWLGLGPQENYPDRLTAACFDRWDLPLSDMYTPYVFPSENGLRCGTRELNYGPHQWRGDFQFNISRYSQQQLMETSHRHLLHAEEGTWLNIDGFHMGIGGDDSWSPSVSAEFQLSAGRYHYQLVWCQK
Chain of Mucolipin-3 (Q8TDD5 whole entry): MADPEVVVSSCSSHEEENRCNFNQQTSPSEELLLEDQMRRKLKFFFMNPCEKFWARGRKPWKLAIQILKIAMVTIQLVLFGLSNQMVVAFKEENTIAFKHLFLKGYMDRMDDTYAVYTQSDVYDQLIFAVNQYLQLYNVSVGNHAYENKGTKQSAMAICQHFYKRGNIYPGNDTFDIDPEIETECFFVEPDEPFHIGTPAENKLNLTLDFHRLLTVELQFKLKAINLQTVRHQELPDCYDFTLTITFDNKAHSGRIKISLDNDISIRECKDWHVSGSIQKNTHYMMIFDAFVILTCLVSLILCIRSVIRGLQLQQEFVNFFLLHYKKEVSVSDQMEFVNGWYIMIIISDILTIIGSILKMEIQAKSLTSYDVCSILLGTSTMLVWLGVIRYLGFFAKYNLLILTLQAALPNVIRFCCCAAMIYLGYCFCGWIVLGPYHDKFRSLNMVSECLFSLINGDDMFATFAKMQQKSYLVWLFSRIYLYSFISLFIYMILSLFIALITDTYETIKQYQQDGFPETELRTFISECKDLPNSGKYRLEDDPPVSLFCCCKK

Q: For `Cc1ccc(-c2csc3ncnc(NS(=O)(=O)c4ccc(Cl)cc4)c23)cc1`, which EC50 [1] is on record?
A: 4.44 µM (active)

Q: And the EC50 (Streptokinase A)?
A: 16.2 µM (active)

Q: What about the IC50 [2] of the same compound?
A: 35.5 µM (active)

Q: What about the AC50 [3] of the same compound?
A: 9.42 µM (active)

Q: What about the EC50 (Streptococcus) of the same compound?
A: 66.7 µM (active)

Q: With `Oc1ccc(-c2csc(-c3cccnc3)n2)cc1O` as the compound, how does the IC50 (Aspartyl aminopeptidase) read?
A: 1.81 µM (active)

Q: What about the IC50 [4] of the same compound?
A: 9.47 µM (active)

Q: And the IC50 (Procathepsin L)?
A: > 59.6 µM (not active)

Q: What about the AC50 [5] of the same compound?
A: 7.37 µM (active)

Q: Which EC50 [6] does the source give for `Cc1c2cnn(-c3ccccc3)c(=O)c2c(C)n1CCCC(=O)NCCN1CCN(C)CC1` here?
A: > 55.7 µM (not active)

Q: What about the EC50 [7] of the same compound?
A: > 55.7 µM (not active)

Q: With `Cc1ccc(-c2nc3cc(N)ccc3o2)cc1` as the compound, how does the EC50 (HT-1080) read?
A: > 50 µM (not active)

Q: And the EC50 [8]?
A: 4.68 µM (active)

Q: Which EC50 [9] does the source give for `COC(=O)c1cn(NC(=O)c2ccncc2)c(=O)c2ccccc12` here?
A: > 50 µM (not active)

Q: With `CCN(CC)S(=O)(=O)c1ccc(C(=O)NCCc2ccccn2)cc1` as the compound, how does the EC50 (Wee1-like protein kinase) read?
A: > 49.7 µM (not active)

Q: And the EC50 [10]?
A: > 49.7 µM (not active)

Q: With `Cc1ccc(S(=O)(=O)N(C)c2cc(S(=O)(=O)N3CCC(C)CC3)c(C)cc2C)cc1` as the compound, how does the EC50 (Ion channel NompC) read?
A: > 29.9 µM (not active)

Q: And the EC50 (Mucolipin-3)?
A: 2.06 µM (active)

Q: With `COc1cc(C(c2cc3c(cc2O)OCO3)N2CCOCC2)ccc1O` (configuration not stated) as the compound, how does the IC50 [11] read?
A: 10.1 µM (not active)

Q: For `COc1cccc(-c2oc3ccccc3c(=O)c2O)c1`, which AC50 (Cytochrome P450 2D6) is on record?
A: 31.6 µM (inconclusive)

Q: Which IC50 (Large T antigen) does the source give for `O=[N+]([O-])c1cc(Cc2ccccc2)cc(/C=N/c2ccc(N3CCOCC3)cc2)c1O` here?
A: 2.64 µM (active)

Q: And the IC50 [12]?
A: > 66.6 µM (inactive)

Q: What about the IC50 (NS3) of the same compound?
A: 7.65 µM (active)

Q: And the IC50 (Beta-galactosidase)?
A: > 66.6 µM (inactive)

Q: What about the AC50 [13] of the same compound?
A: 4.32 µM (active)

Q: And the IC50 [14]?
A: 9.12 µM (active)

Q: Which EC50 [15] does the source give for `CC(=O)O[C@@H]1/C=C/[C@](C)(O)C[C@@H](C)C/C=C/[C@H]2[C@H](O)C(C)=C(C)[C@H]3[C@H](Cc4ccccc4)NC(=O)[C@@]123` here?
A: < 0.1 µM (active)

Q: What about the EC50 (cells) of the same compound?
A: 0.895 µM (active)

Q: What about the EC50 [16] of the same compound?
A: 28.2 µM (active)

Q: What about the EC50 [17] of the same compound?
A: 0.397 µM (active)

Q: What about the EC50 [18] of the same compound?
A: 0.208 µM (active)

Q: What about the EC50 [19] of the same compound?
A: 0.577 µM (active)
